# Experimental data: ChEMBL document CHEMBL5244219, “Recent developments of quinolone-based derivatives and their activities against Escherichia coli” (Eur J Med Chem, 2018)
# System: Escherichia coli
# Experiment: Antibacterial activity against Escherichia coli assessed as bacterial growth inhibition measured after 18 to 24 hrs by broth microdilution method
# Format: functional
# Settings: time 18-24 hrs
row,MIC [µg/mL],SMILES
1,< 0.05,O=C(O)c1cn(-c2ccc(O)cc2)c2cc(N3CCNCC3)c(F)cc2c1=O
2,< 0.05,NC1CCN(c2cc3c(cc2F)c(=O)c(C(=O)O)cn3-c2ccc(O)cc2)C1 (centres undefined)
3,< 0.05,C[C@H](N)[C@H]1CCN(c2nc3c(cc2F)c(=O)c(C(=O)O)cn3-c2ccc(O)cc2)C1
4,< 0.05,COc1c(N2CCNCC2)c(F)cc2c(=O)c(C(=O)O)cn(-c3ccc(O)cc3)c12
5,< 0.05,C[C@@H]1C[C@H](N)CN1c1cc2c(cc1F)c(=O)c(C(=O)O)cn2-c1ccc(O)cc1
6,< 0.05,CN1CCC2CN(c3cc4c(cc3F)c(=O)c(C(=O)O)cn4-c3ccc(O)cc3)CC21 (centres undefined)
7,< 0.05,N[C@@H]1[C@H]2CN(c3cc4c(cc3F)c(=O)c(C(=O)O)cn4-c3ccc(O)cc3)C[C@@H]12
8,< 0.05,COc1c(N2CCC(N)C2)c(F)cc2c(=O)c(C(=O)O)cn(-c3ccc(O)cc3)c12 (centres undefined)
9,< 0.05,O=C(O)c1cn(-c2ccc(O)cc2)c2cc(N3CC4CC3CN4)c(F)cc2c1=O (centres undefined)
10,< 0.05,NC1CCN(c2nc3c(cc2F)c(=O)c(C(=O)O)cn3-c2ccc(O)cc2)C1 (centres undefined)
11,< 0.05,N[C@@H]1CN(c2cc3c(cc2F)c(=O)c(C(=O)O)cn3-c2ccc(O)cc2)CC12CC2
12,< 0.05,C[C@@H]1CN(c2cc3c(cc2F)c(=O)c(C(=O)O)cn3-c2ccc(O)cc2)C[C@H](C)N1
13,< 0.05,COc1c(N2CC3CC2CN3)c(F)cc2c(=O)c(C(=O)O)cn(-c3ccc(O)cc3)c12 (centres undefined)
14,< 0.05,C[C@@H]1CN(c2nc3c(cc2F)c(=O)c(C(=O)O)cn3-c2ccc(O)cc2)C[C@H]1N
15,< 0.05,O=C(O)c1cn(-c2ccc(O)cc2)c2nc(N3CC4CCCNC4C3)c(F)cc2c1=O (centres undefined)
16,< 0.05,C[C@@H](N)[C@H]1CCN(c2cc3c(cc2F)c(=O)c(C(=O)O)cn3-c2ccc(O)cc2)C1
17,< 0.05,CC1CNCCN1c1nc2c(cc1F)c(=O)c(C(=O)O)cn2-c1ccc(O)cc1 (centres undefined)
18,< 0.05,C[C@H]1CN(c2nc3c(cc2F)c(=O)c(C(=O)O)cn3-c2ccc(O)cc2)C[C@H]1N
19,< 0.05,C[C@H](N)[C@@H]1CCN(c2cc3c(cc2F)c(=O)c(C(=O)O)cn3-c2ccc(O)cc2)C1
20,< 0.05,O=C(O)c1cn(-c2ccc(O)cc2)c2nc(N3CC4CC3CN4)c(F)cc2c1=O (centres undefined)
21,< 0.05,N[C@@H]1CN(c2nc3c(cc2F)c(=O)c(C(=O)O)cn3-c2ccc(O)cc2)CC12CC2
22,< 0.05,NCC1CCN(c2cc3c(cc2F)c(=O)c(C(=O)O)cn3-c2ccc(O)cc2)C1 (centres undefined)

row,MIC [µg/mL],SMILES
1,< 0.05,CN1CCN(c2nc3c(cc2F)c(=O)c(C(=O)O)cn3-c2ccc(O)cc2)CC1
2,< 0.05,O=C(O)c1cn(-c2ccc(O)cc2)c2nc(N3CCNCC3)c(F)cc2c1=O
3,< 0.05,N[C@@H]1[C@H]2CN(c3nc4c(cc3F)c(=O)c(C(=O)O)cn4-c3ccc(O)cc3)C[C@@H]12
4,< 0.05,C[C@@H]1CN(c2cc3c(cc2F)c(=O)c(C(=O)O)cn3-c2ccc(O)cc2)C[C@H]1N
5,< 0.05,N[C@H]1CN(c2cc3c(cc2F)c(=O)c(C(=O)O)cn3-c2ccc(O)cc2)CC12CC2
6,< 0.05,COc1c(N2CC3CCN(C)C3C2)c(F)cc2c(=O)c(C(=O)O)cn(-c3ccc(O)cc3)c12 (centres undefined)
7,< 0.05,NCC1CCN(c2nc3c(cc2F)c(=O)c(C(=O)O)cn3-c2ccc(O)cc2)C1 (centres undefined)
8,< 0.05,COc1c(N2C[C@@H](C)N[C@@H](C)C2)c(F)cc2c(=O)c(C(=O)O)cn(-c3ccc(O)cc3)c12
9,< 0.05,COc1c(N2C[C@@H](C)[C@H](N)C2)c(F)cc2c(=O)c(C(=O)O)cn(-c3ccc(O)cc3)c12
10,< 0.05,N[C@@H]1CCC[C@@H]2CN(c3cc4c(cc3F)c(=O)c(C(=O)O)cn4-c3ccc(O)cc3)C[C@@H]21
11,< 0.05,C[C@@H]1CN(c2nc3c(cc2F)c(=O)c(C(=O)O)cn3-c2ccc(O)cc2)C[C@H](C)N1
12,< 0.05,N[C@H]1CN(c2nc3c(cc2F)c(=O)c(C(=O)O)cn3-c2ccc(O)cc2)CC12CC2
13,< 0.05,O=C(O)c1cn(-c2ccc(O)cc2)c2cc(N3CC4CCCNC4C3)c(F)cc2c1=O (centres undefined)
14,< 0.05,COc1c(N2CC3CCCNC3C2)c(F)cc2c(=O)c(C(=O)O)cn(-c3ccc(O)cc3)c12 (centres undefined)
15,< 0.05,C[C@H]1CN(c2cc3c(cc2F)c(=O)c(C(=O)O)cn3-c2ccc(O)cc2)C[C@H]1N
16,< 0.05,COc1c(N2CCC(CN)C2)c(F)cc2c(=O)c(C(=O)O)cn(-c3ccc(O)cc3)c12 (centres undefined)
17,< 0.05,N[C@@H]1CCC[C@@H]2CN(c3nc4c(cc3F)c(=O)c(C(=O)O)cn4-c3ccc(O)cc3)C[C@@H]21
18,< 0.05,COc1c(N2C[C@@H](N)C3(CC3)C2)c(F)cc2c(=O)c(C(=O)O)cn(-c3ccc(O)cc3)c12
19,< 0.05,C[C@H](N)[C@@H]1CCN(c2nc3c(cc2F)c(=O)c(C(=O)O)cn3-c2ccc(O)cc2)C1
20,< 0.05,COc1c(N2C[C@@H](N)[C@@H](C)C2)c(F)cc2c(=O)c(C(=O)O)cn(-c3ccc(O)cc3)c12
21,< 0.05,CN1CCC2CN(c3nc4c(cc3F)c(=O)c(C(=O)O)cn4-c3ccc(O)cc3)CC21 (centres undefined)
22,< 0.05,C[C@@H](N)[C@H]1CCN(c2nc3c(cc2F)c(=O)c(C(=O)O)cn3-c2ccc(O)cc2)C1
